Read-outs that look alike come from different tables or passages of the source. Square brackets hold non-standard residues; d marks the D form. Side chains are listed from the residue outwards. Peptide text beside a SMILES is read from it. * marks the point of attachment. DOTA = O=C(O)CN1CCN(CC(=O)O)CCN(CC(=O)*)CCN(CC(=O)O)CC1; NOTA = O=C(O)CN1CCN(CC(=O)O)CCN(CC(=O)*)CC1; 2Nal = N[C@@H](Cc1ccc2ccccc2c1)C(=O)O; dNMeOrn = CN[C@H](CCCN)C(=O)O; 4Amb = NCc1ccc(C(=O)O)cc1
Assays:
[1] = Metabolite analysis of mouse plasma after i.v. injection; assay type: in vivo; conditions: CB17 SCID mouse, 50 MBq i.v., plasma at 60 min p.i., RP-HPLC with γ-counter
Protocol: All animal studies were conducted in accordance with the German Animal Welfare Act (Deutsches Tierschutzgesetz, approval No. 55.2-1-54-2532-71-13). For metabolite analysis, 50 MBq of [^68Ga]NOTA-pentixafor in a total volume of 200 μL of PBS was injected into the tail vein of a CB17 SCID mouse; the animal was sacrificed at 1 h p.i. and blood was collected. After sample preparation, as described in [24], the plasma samples were analyzed by reversed phase (RP)-HPLC and eluate fractions were analyzed using a γ-counter.

[2] = Biodistribution in Daudi lymphoma xenograft bearing SCID mice; assay type: in vivo, mouse; conditions: female, CB-17 SCID, mouse, iv, total radioactivity, mean ± SD
Protocol: (§1) For PET (n = 3) and biodistribution studies (n = 5), an average of 15.2 MBq [^68Ga]NOTA-pentixafor (100 μL in PBS, 145 pmol, 171 ng) with a specific activity (AS) of 104 GBq/μmol was injected intravenously into the tail vein of isofluorane anesthesized female Daudi lymphoma-bearing SCID mice. […] After static PET imaging for 15 min (Inveon Siemens μPET scanner), the mice were sacrificed (90 min p.i.), and tissues and organs of interest were dissected, weighed, and counted for radioactivity in a γ-counter. The percentage of injected dose per gram of tissue (% ID/g) was calculated; data are shown as mean ± SD.

[3] = Determination of tracer lipophilicity (logP); assay type: physicochemical; conditions: determined as published (method ref 22)
Protocol: General procedures and syntheses of the peptides are described in a recently reported protocol. Determination of tracer lipophilicity and serum stability as well as in vitro studies were performed as recently published. ^68Ga-labeling of peptides was performed as described using a fully automated system (Scintomics GmbH); briefly, the ^68Ge/^68Ga generator eluate fractions (1.25 mL) were reacted with 5 nmol of peptide. The mixture was buffered with 0.6 mL HEPES (pH = 7.4) to a final pH of 3–4 and heated to 95 °C for 5 min. After purification via one Sep-Pak C8 light cartridge, the ethanolic product fraction was diluted with PBS and used as such for the experiments.

[4] = parameters: method as in PMID 22045709; conditions: at 30 min p.i.; cited from earlier work
[5] = test system: Daudi xenograft bearing CB-17 SCID mice; test: Biodistribution in Daudi lymphoma xenograft bearing SCID mice; assay type: in vivo, mouse; conditions: tracer only, i.v., 1.5 h p.i., mean ± SD
Protocol: as §1

CXCR4 = conditions: Jurkat T cells, [^125I]FC131 radioligand; natGa-complexed peptides and metal-free precursors; determined previously; cited from earlier work
Description: Table 1 Comparison of the lipophilicity and the in vitro CXCR4 targeting characteristics of [^68Ga]NOTA-pentixafor and [^68Ga]pentixafor | column: IC50 (nM)

[6] = adrenals, 15.2 MBq, tracer only, i.v., 1.5 h p.i., read-out: Adrenals uptake
[7] = heart, 15.2 MBq, tracer only, i.v., 1.5 h p.i., read-out: Heart uptake
[8] = intestine, 15.2 MBq, tracer only, i.v., 1.5 h p.i., read-out: Intestine uptake
[9] = kidney, 15.2 MBq, tracer only, i.v., 1.5 h p.i., read-out: Kidney uptake
[10] = liver, 15.2 MBq, tracer only, i.v., 1.5 h p.i., read-out: Liver uptake
[11] = lung, 15.2 MBq, tracer only, i.v., 1.5 h p.i., read-out: Lung uptake
[12] = muscle, 15.2 MBq, tracer only, i.v., 1.5 h p.i., read-out: Muscle uptake
[13] = pancreas, 15.2 MBq, tracer only, i.v., 1.5 h p.i., read-out: Pancreas uptake
[14] = spleen, 15.2 MBq, tracer only, i.v., 1.5 h p.i., read-out: Spleen uptake
[15] = stomach, 15.2 MBq, tracer only, i.v., 1.5 h p.i., read-out: Stomach uptake

Row | tissue uptake at 1.5 h [2, 6] | tissue uptake at 1.5 h [2, 7] | tissue uptake at 1.5 h [2, 8] | tissue uptake at 1.5 h [2, 9] | tissue uptake at 1.5 h [2, 10] | tissue uptake at 1.5 h [2, 11] | tissue uptake at 1.5 h [2, 12] | tissue uptake at 1.5 h [2, 13] | tissue uptake at 1.5 h [2, 14] | tissue uptake at 1.5 h [2, 15] | logP [3] | Molecule | other results
1 | 0.52 ± 0.3 %ID/g | 0.34 ± 0.19 %ID/g | 1.89 ± 0.83 %ID/g | 2.71 ± 1.06 %ID/g | 2.3 ± 0.88 %ID/g | 0.73 ± 0.25 %ID/g | 0.13 ± 0.1 %ID/g | 0.12 ± 0.05 %ID/g | 0.44 ± 0.22 %ID/g | 0.45 ± 0.21 %ID/g | −2.36 | CN1C(=O)[C@@H](Cc2ccc(O)cc2)NC(=O)CNC(=O)[C@H](Cc2ccc3ccccc3c2)NC(=O)[C@H](CCCNC(=N)N)NC(=O)[C@H]1CCCNC(=O)c1ccc(CNC(=O)CN2CCN(CC(=O)O)CCN(CC(=O)O)CC2)cc1 [[^68Ga]NOTA-pentixafor, metal not drawn] (cyclo([2Nal]G[dY][dNMeOrn]([4Amb-NOTA])R)) | radiometabolites in mouse plasma (metabolic stability) [1]: complete absence of radiometabolites; tissue uptake at 1.5 h ([2]; adrenals, co-injection of 50 μg AMD3100, n = 3, 1.5 h p.i., read-out: Adrenals uptake): 0.48 ± 0.15 %ID/g; tissue uptake at 1.5 h ([2]; blood, 15.2 MBq, tracer only, i.v., 1.5 h p.i., read-out: Blood uptake): 0.65 ± 0.41 %ID/g; tissue uptake at 1.5 h ([2]; blood, co-injection of 50 μg AMD3100, n = 3, 1.5 h p.i., read-out: Blood uptake): 0.62 ± 0.26 %ID/g; tissue uptake at 1.5 h ([2]; bone, 15.2 MBq, tracer only, i.v., 1.5 h p.i., read-out: Bone uptake): 0.25 ± 0.18 %ID/g; tissue uptake at 1.5 h ([2]; bone, co-injection of 50 μg AMD3100, n = 3, 1.5 h p.i., read-out: Bone uptake): 0.16 ± 0.07 %ID/g; tissue uptake at 1.5 h ([2]; gallbladder, 15.2 MBq, tracer only, i.v., 1.5 h p.i., read-out: Gallbladder uptake): 3.61 ± 3 %ID/g; tissue uptake at 1.5 h ([2]; gallbladder, co-injection of 50 μg AMD3100, n = 3, 1.5 h p.i., read-out: Gallbladder uptake): 5.14 ± 2.24 %ID/g; tissue uptake at 1.5 h ([2]; heart, co-injection of 50 μg AMD3100, n = 3, 1.5 h p.i., read-out: Heart uptake): 0.36 ± 0.14 %ID/g; tissue uptake at 1.5 h ([2]; intestine, co-injection of 50 μg AMD3100, n = 3, 1.5 h p.i., read-out: Intestine uptake): 3.97 ± 0.92 %ID/g; tissue uptake at 1.5 h ([2]; kidney, co-injection of 50 μg AMD3100, n = 3, 1.5 h p.i., read-out: Kidney uptake): 3.56 ± 1.03 %ID/g; tissue uptake at 1.5 h ([2]; liver, co-injection of 50 μg AMD3100, n = 3, 1.5 h p.i., read-out: Liver uptake): 2.02 ± 0.76 %ID/g; tissue uptake at 1.5 h ([2]; lung, co-injection of 50 μg AMD3100, n = 3, 1.5 h p.i., read-out: Lung uptake): 0.95 ± 0.38 %ID/g; tissue uptake at 1.5 h ([2]; muscle, co-injection of 50 μg AMD3100, n = 3, 1.5 h p.i., read-out: Muscle uptake): 0.13 ± 0.05 %ID/g; tissue uptake at 1.5 h ([2]; pancreas, co-injection of 50 μg AMD3100, n = 3, 1.5 h p.i., read-out: Pancreas uptake): 0.16 ± 0.05 %ID/g; tissue uptake at 1.5 h ([2]; spleen, co-injection of 50 μg AMD3100, n = 3, 1.5 h p.i., read-out: Spleen uptake): 0.54 ± 0.19 %ID/g; tissue uptake at 1.5 h ([2]; stomach, co-injection of 50 μg AMD3100, n = 3, 1.5 h p.i., read-out: Stomach uptake): 0.58 ± 0.24 %ID/g
2 | 3.68 ± 0.72 %ID/g | 0.58 ± 0.17 %ID/g | 0.7 ± 0.2 %ID/g | 1.65 ± 0.91 %ID/g | 2.05 ± 0.27 %ID/g | 1.32 ± 0.29 %ID/g | 0.19 ± 0.06 %ID/g | 1.06 ± 0.22 %ID/g | 0.3 ± 0.1 %ID/g | 0.48 ± 0.08 %ID/g | −2.90 | CN1C(=O)[C@@H](Cc2ccc(O)cc2)NC(=O)CNC(=O)[C@H](Cc2ccc3ccccc3c2)NC(=O)[C@H](CCCNC(=N)N)NC(=O)[C@H]1CCCNC(=O)c1ccc(CNC(=O)CN2CCN(CC(=O)O)CCN(CC(=O)O)CCN(CC(=O)O)CC2)cc1 [[^68Ga]pentixafor, metal not drawn] (cyclo([dY][dNMeOrn]([4Amb-DOTA])R[2Nal]G)) | radiometabolites in mouse plasma (metabolic stability) [4]: complete absence of radiometabolites; Intestine uptake [5]: 0.67 ± 0.21 % ID/g
3 | – | – | – | – | – | – | – | – | – | – | – | Pentixafor | IC50 (CXCR4): 102 ± 17 nM

Reference: publication PMC5031577, “Preclinical evaluation of [^68Ga]NOTA-pentixafor for PET imaging of CXCR4 expression in vivo — a comparison to [^68Ga]pentixafor” (EJNMMI Research, 2016)
